Data published in US20130196960A1, “Cannabinoid Receptor Agonists” (Ironwood Pharmaceuticals, Inc., priority 2010, published 2013).
pEC50, pIC50: −log10 of the molar value. Like-named read-outs stand apart in the source and are kept apart here.

How the values were obtained:
[1] = biological target: human CB1 (Homo sapiens, UniProt P21554); experiment: Human CB1 cannabinoid receptor radioligand binding assay ([3H]-CP 55,940 displacement, HEK-293 membranes)
Text: (§1) cDNA expression clones for human CB1 (hCB1, Genbank Accession No. AY225225) and human CB2 (hCB2, Genbank Accession No. AY242132) expressed in vector pcDNA3.1+ were purchased from UMR cDNA Resource Center, Rolla, Mo. (Clone ID CNR01L000 for hCB1; CNR0200000 for hCB2).
(§2) Stable, HEK-293-derived cell lines that recombinantly express hCB1 or hCB2 were established. In brief, the clone hCB1 (CNR1L) or hCB2 (CNR2) was transfected into human embryonic kidney cells (HEK-293) using Lipofectamine 2000 (Gibco, Cat#11668-019) according to the manufacturer's protocol. Transfected clones were isolated by single colony purification and clones were screened for receptor expression using a whole cell, 3H-CP 55,940 radioligand binding assay. HEK-293 stable cells were maintained in Dulbecco's modified Eagles medium (DMEM) containing 10% fetal bovine serum, 2 mM L-glutamine and 0.5 mg/mL G-418.
(§3) Membranes were isolated from transfected cells as follows. Monolayers of cultured cells were washed twice with phosphate-buffered saline (PBS). Cells were scraped into 20 mM HEPES, pH 7.4, 10 mM EDTA containing complete cocktail protease inhibitors (Roche, Catalog #11 697 498 001), and were homogenized by an electric-powered mechanical probe homogenizer (Omni GLH; probe G7-195S) for 40 seconds at 7000 rpm. Homogenates were centrifuged 10 minutes at 1000×g at 4° C. The supernatant was collected and was centrifuged for 1 hour at 40,000×g. The supernatant was then decanted and the resulting pellet was re-suspended in 20 mM HEPES, pH 7.4, 5 mM MgCl2, 1 mM EDTA, 10% sucrose with complete cocktail protease inhibitors. Protein concentration of membrane suspensions were measured by Bradford Protein Assay using bovine serum albumin as the standard (BioRad catalog #500-0006). Protein concentrations of membrane suspensions were adjusted with the final buffer in the range of 5 to 10 mg/mL and were stored at −80° C. until further use.
(§4) Radioligand binding assays were performed by incubating membranes (2-10 μg protein) prepared from HEK-293 cells expressing recombinant human cannabinoid receptors, CB1 or CB2, at room temperature with 0.5 nM cannabinoid receptor agonist, [3H]-CP 55,940 (Perkin Elmer, catalog #NET1051) in 0.2 mL of binding buffer (50 mM Tris-HCl, pH 7.5, 5 mM MgCl2, 2.5 mM EDTA) and 0.1% fatty acid free bovine serum albumin (Sigma Cat. #A0821) for 90 minutes. A rapid filtration technique using Millipore FB filter plates (Catalog #MADVNOB) and filtration apparatus (Millipore system Catalog MAVM0960R) with vacuum aspiration was used to harvest and rinse labeled membranes (8 times with 0.2 mL of chilled binding buffer). The radioactivity bound to the filters was counted with 0.05 mL of liquid scintillant (UltraGold MV, PerkinElmer catalog #6013159) in a scintillation counter (Perkin Elmer Microbeta instrument). Nonspecific binding was determined in the presence of unlabeled 1 μM CP 55,940 (Sigma Aldrich, catalog #C1112). Binding data were analyzed using GraphPad Prism (GraphPad Software, Inc. San Diego, Calif.).

[2] = biological target: T1, human CB2 (Homo sapiens, UniProt P34972); experiment: Human CB2 cannabinoid receptor radioligand binding assay ([3H]-CP 55,940 displacement, HEK-293 membranes)
T1 sequence (P34972 whole entry): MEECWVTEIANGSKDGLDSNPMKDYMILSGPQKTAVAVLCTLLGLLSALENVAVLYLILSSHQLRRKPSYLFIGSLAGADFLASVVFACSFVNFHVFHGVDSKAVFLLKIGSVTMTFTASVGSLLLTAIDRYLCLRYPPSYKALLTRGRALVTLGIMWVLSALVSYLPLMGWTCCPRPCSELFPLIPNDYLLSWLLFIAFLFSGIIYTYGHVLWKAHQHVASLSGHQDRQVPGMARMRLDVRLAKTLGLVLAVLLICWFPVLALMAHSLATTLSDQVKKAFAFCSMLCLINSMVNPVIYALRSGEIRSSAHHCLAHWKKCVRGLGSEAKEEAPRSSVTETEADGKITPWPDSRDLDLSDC
Text: as §1, §2, §3, §4

[3] = biological target: T1, human CB2; experiment: 35S GTPγS binding functional assay, agonist mode, hCB2 HEK-293 membranes; type: biochemical
Protocol: Functional assays which monitor G-protein coupled receptor or downstream cellular responses can be used to characterize potential CB1 receptor and/or CB2 receptor agonist or antagonist activities. Direct activation (or inhibition of activation) can be monitored using a GTPγS assay (membrane-based assay) or cAMP assay (whole cell-based assay).
^35S GTPγS binding assays were performed by incubating recombinant cell membranes prepared above (5 μg) in the presence of scintillation proximity assay beads (SPA beads, Catalog #RPNQ0252 GE Healthcare, Buckinghamshire, England) in GTPγS binding buffer [50 mM HEPES (pH 7.4), 100 mM NaCl, 5 mM MgCl2, 0.001% saponin (Sigma catalog #S4521)] supplemented with 20 uM GDP (Sigma catalog #G7127) in the presence or absence of test compound. The reaction was carried out in 96-well microplates with 0.1 nM [^35S]GTPγS (specific activity=1250 Ci/mmol; Perkin Elmer catalog #NEG030X250UC) in a final volume of 100 uL. After a 90 min room temperature incubation, the reaction was analyzed using a scintillation counter (Perkin Elmer Microbeta instrument). Binding data were analyzed using GraphPad Prism.

[4] = system: mouse; experiment: Phenylbenzoquinone-induced (PBQ) writhing model; conditions: dose 30 (unit not given), route IP, P < 0.001
[5] = read-out: hCB1 IC50 (CP displ, nM, HEK); CP 55,940 displacement, HEK-293 membranes
[6] = read-out: hCB2 IC50 (CP displ, nM, HEK); CP 55,940 displacement, HEK-293 membranes
[7] = GTPγS agonist mode, HEK-293 membranes; read-out: hCB2 EC50 (GTPyS ag, nM, HEK)
[8] = CP 55,940 displacement, HEK-293 membranes; read-out: hCB1 IC50 (CP displ, nM, HEK)
[9] = CP 55,940 displacement, HEK-293 membranes; read-out: hCB2 IC50 (CP displ, nM, HEK)
[10] = read-out: hCB2 EC50 (GTPyS ag, nM, HEK); GTPγS agonist mode, HEK-293 membranes

Sequence of human CB1 (P21554 whole entry): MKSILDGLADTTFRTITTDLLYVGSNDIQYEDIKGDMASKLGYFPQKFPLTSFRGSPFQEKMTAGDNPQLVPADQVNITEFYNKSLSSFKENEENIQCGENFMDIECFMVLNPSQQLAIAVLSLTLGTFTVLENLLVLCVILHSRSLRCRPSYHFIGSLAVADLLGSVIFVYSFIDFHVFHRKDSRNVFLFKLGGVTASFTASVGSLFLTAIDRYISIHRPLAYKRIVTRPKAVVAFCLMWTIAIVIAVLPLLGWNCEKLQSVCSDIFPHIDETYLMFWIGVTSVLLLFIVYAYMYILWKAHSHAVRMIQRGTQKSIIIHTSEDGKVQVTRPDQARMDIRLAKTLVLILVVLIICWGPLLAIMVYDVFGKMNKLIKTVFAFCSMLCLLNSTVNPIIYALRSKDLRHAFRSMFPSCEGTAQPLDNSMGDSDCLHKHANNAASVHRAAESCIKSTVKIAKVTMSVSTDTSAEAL

SMILES	IC50 [1, 5]	IC50 [2, 6]	EC50 [3, 7]	further results
Cc1c(C(=O)c2cccc(Cl)c2Cl)c2ccsc2n1CCN1CCOCC1 [Compound I-1, (2,3-dichlorophenyl)(5-methyl-6-(2-morpholinoethyl)-6H-thieno[2,3-b]pyrrol-4-yl)methanone]				pIC50 [1]: 5.00 to 6.00; pIC50 [2]: > 7.00; pEC50 [3]: > 7.00; Number of Writhes [4]: 1.5 ± 0.79
CCCn1c(C)c(C(=O)c2cccc(Cl)c2Cl)c2ccsc21 [Compound I-2]	> 10000 nM	100 to 1000 nM	< 100 nM	
Cc1c(C(=O)c2cccc(Cl)c2Cl)c2scnc2n1CCN1CCOCC1 [Compound I-3]	1000 to 10000 nM	< 100 nM	< 100 nM	
CCCn1c(C)c(C(=O)c2cccc(Cl)c2Cl)c2scnc21 [Compound I-4]	> 10000 nM	100 to 1000 nM	< 100 nM	
Cc1c(C(=O)c2cccc(Cl)c2Cl)c2sccc2n1CCN1CCOCC1 [Compound I-5]	1000 to 10000 nM	< 100 nM	< 100 nM	
CCCn1c(C)c(C(=O)c2ccccc2)c2ccsc21 [Compound I-7]				IC50 [1, 8]: > 10000 nM; IC50 [2, 9]: > 10000 nM
Cc1c(C(=O)C2C(C)(C)C2(C)C)c2ccsc2n1CCN1CCOCC1 [Compound I-8]	1000 to 10000 nM	100 to 1000 nM	< 100 nM	
Cc1c(C(=O)c2cccc(Cl)c2Cl)c2ccsc2n1CCC1CCOCC1 [Compound I-9]	100 to 1000 nM	< 100 nM	< 100 nM	
COCCn1c(C)c(C(=O)c2cccc(Cl)c2Cl)c2ccsc21 [Compound I-10]	> 10000 nM	100 to 1000 nM	100 to 1000 nM	
Cc1c(C(=O)c2cccc(F)c2F)c2ccsc2n1CCN1CCOCC1 [Compound I-11]	> 10000 nM	1000 to 10000 nM	100 to 1000 nM	
Cc1c(C(=O)c2cccc(Cl)c2)c2ccsc2n1CCN1CCOCC1 [Compound I-12]	1000 to 10000 nM	1000 to 10000 nM		
Cc1c(C(=O)c2cccc3c2OCC3)c2ccsc2n1CCN1CCOCC1 [Compound I-14]	1000 to 10000 nM	100 to 1000 nM	100 to 1000 nM	
Cc1c(C(=O)c2ccc(Cl)cc2Cl)c2ccsc2n1CCN1CCOCC1 [Compound I-15]	> 10000 nM	100 to 1000 nM	100 to 1000 nM	
Cc1c(C(=O)c2cccc(Cl)c2Cl)c2ccsc2n1CCN1CCCCC1 [Compound I-17]	1000 to 10000 nM	< 100 nM	< 100 nM	
Cc1c(C(=O)c2cccc(Cl)c2Cl)c2ccsc2n1CC(=O)N1CCOCC1 [Compound I-18]	> 10000 nM	100 to 1000 nM		EC50 [3, 10]: 100 to 1000 nM
Cc1c(C(=O)c2cccc(Cl)c2Cl)c2cc(Cl)sc2n1CCN1CCOCC1 [Compound I-19]	1000 to 10000 nM	< 100 nM	100 to 1000 nM	
Cc1c(C(=O)c2cccc(Cl)c2Cl)c2ccsc2n1CC1CCCCN1C (centres unmarked) [Compound I-20]	< 100 nM	< 100 nM	< 100 nM	
CCS(=O)(=O)n1c(C)c(C(=O)c2cccc(Cl)c2Cl)c2ccsc21 [Compound I-21]				IC50 [1, 8]: > 10000 nM; IC50 [2, 9]: 1000 to 10000 nM
Cc1c(C(=O)c2cccc(Cl)c2Cl)c2ccsc2n1CCC1CCN(C(=O)OC(C)(C)C)CC1 [Compound I-22]				IC50 [1, 8]: > 10000 nM; IC50 [2, 9]: > 10000 nM
Cc1c(C(=O)c2cccc(Cl)c2Cl)c2ccsc2n1CC1CCOCC1 [Compound I-23]	1000 to 10000 nM	< 100 nM	< 100 nM	
Cc1c(C(=O)C2CCCCC2)c2ccsc2n1CCN1CCOCC1 [Compound I-24]	1000 to 10000 nM	100 to 1000 nM	100 to 1000 nM	
Cc1c(C(=O)c2cccc(Cl)c2Cl)c2ccsc2n1CCC1CCN(C)CC1 [Compound I-25]	> 10000 nM	> 10000 nM		
CCCOc1ccccc1C(=O)c1c(C)n(CCN2CCOCC2)c2sccc12 [Compound I-27]	> 10000 nM	1000 to 10000 nM		
Cc1c(C(=O)c2cccnc2Cl)c2ccsc2n1CCN1CCOCC1 [Compound I-28]	> 10000 nM	1000 to 10000 nM		
CCn1c(C)c(C(=O)c2cccc(Cl)c2Cl)c2ccsc21 [Compound I-30]	> 10000 nM	1000 to 10000 nM		EC50 [3, 10]: 100 to 1000 nM
Cc1c(C(=O)c2ccccc2)c2ccsc2n1CCN1CCOCC1 [Compound I-31]	> 10000 nM	> 10000 nM		
